Test [1] has as its target T1, full length human Dynamin I (Homo sapiens, UniProt Q05193).
T1 construct: full length human Dynamin I expressed in Sf21 insect cells; made in house; host or cells: Sf21 insect cells
T1 sequence (Q05193 1-864): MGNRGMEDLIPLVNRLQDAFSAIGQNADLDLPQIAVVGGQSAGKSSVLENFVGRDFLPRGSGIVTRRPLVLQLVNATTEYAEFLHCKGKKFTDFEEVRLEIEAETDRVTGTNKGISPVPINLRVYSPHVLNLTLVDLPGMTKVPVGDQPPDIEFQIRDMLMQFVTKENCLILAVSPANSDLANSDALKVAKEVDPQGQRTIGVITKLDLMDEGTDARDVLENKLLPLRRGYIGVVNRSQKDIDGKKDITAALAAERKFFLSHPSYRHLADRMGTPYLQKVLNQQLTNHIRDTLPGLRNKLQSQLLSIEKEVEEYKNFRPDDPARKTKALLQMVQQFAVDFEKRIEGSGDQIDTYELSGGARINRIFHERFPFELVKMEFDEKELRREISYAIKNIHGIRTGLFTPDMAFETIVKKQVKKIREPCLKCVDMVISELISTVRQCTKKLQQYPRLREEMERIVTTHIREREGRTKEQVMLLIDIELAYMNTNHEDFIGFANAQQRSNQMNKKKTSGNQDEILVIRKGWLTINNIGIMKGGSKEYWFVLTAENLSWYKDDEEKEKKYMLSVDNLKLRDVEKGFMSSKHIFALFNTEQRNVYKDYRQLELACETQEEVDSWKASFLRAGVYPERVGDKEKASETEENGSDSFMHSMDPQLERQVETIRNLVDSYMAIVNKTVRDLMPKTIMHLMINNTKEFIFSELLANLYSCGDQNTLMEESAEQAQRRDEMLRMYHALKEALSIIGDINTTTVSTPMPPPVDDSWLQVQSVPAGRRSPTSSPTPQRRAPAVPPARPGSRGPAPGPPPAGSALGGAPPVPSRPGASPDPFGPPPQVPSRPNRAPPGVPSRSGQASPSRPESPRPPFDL
The test can be described thus: Dynamin GTPase activity, Malachite Green phosphate detection assay. It is filed as biochemical. The protocol: Dynamin GTPase activity was determined in vitro using the Malachite Green phosphate detection absorbance‐based assay within a 96‐well plate format as described previously. The enzyme source was full length human Dynamin I expressed in Sf21 insect cells and affinity‐purified on GST‐Amph2‐SH3 (rat Amphiphysin 2 (494–588)).^[ [56] ^]

Test [2] addresses T2, clathrin heavy chain NTD (amino acids 1–364) – amphiphysin 1 B/C domain protein–protein interaction (NTD‐PPI) (Homo sapiens, UniProt Q00610).
T2 construct: GST‐tagged clathrin heavy chain NTD (amino acids 1–364); made in house
T2 sequence (Q00610 1-364): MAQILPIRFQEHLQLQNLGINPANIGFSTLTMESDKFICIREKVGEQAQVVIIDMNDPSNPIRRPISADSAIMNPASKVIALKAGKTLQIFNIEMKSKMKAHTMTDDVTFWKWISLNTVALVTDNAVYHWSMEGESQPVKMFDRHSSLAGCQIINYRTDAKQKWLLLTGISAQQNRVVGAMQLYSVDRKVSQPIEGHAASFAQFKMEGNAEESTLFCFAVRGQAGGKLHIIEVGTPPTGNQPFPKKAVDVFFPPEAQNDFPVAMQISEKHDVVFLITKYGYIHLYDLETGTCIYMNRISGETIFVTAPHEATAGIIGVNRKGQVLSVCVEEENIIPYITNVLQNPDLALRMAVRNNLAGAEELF
Kind of test: ELISA-based clathrin inhibitor binding assay (NTD-PPI). To be noted: ELISA, read-out: NTD‐PPI IC50. The protocol: The clathrin inhibitor assay was based inhibition of protein–protein interaction (PPI) between clathrin and amphiphysin as described in our previous report.^[ [45], [54] ^] Bacterially expressed recombinant purified His6‐tagged amphiphysin 1 B/C domain (which comprises both the clathrin and the AP‐2 binding sites, amino acids 250‐578^[ [55] ^]) in screening buffer (20 mM HEPES, pH 7.4, 50 mM NaCl, 1 mM DTT, 1 mM PMSF) was added to a 384 well ELISA plate (Corning Maxisorp 3700) and bound to the plastic for 1 h at room temperature. […] Following extensive washes (with 20 mM HEPES, pH 7.4, 50 mM NaCl, 0.05% Tween 20), chemical compounds diluted in DMSO (10 μL) were added and incubated together with bacterially expressed recombinant GST‐tagged clathrin heavy chain NTD (amino acids 1–364) for 1 h at room temperature in screening buffer. After 3 washes, horseradish peroxidase‐coupled anti‐GST antibodies were added in screening buffer and the plate incubated for 40 min at room temperature. Following additional washes, 50 μL TMB (3,3′,5,5′‐tetramethylbenzidine) (Pierce Biotechnology) chromogenic substrate of horseradish peroxidase was added, and the plate was incubated for 10 min before the reaction was terminated by adding 50 μL 1N sulfuric acid to produce a yellow colour. The amount of bound protein was determined by spectrophotometric measurement in a plate reader. Relative binding was calculated as a percentage of DMSO control.
(ELISA stands for enzyme-linked immunosorbent assay.)

The mark [3] stands for this setting: Table 2, library 2, n = 3, triplicate, '–' = not active at 100 μM, read-out: Dyn 1 IC50.
The mark [4] stands for this setting: Table 1, library 1, n = 1 unless noted (19: n = 2), '–' = not active at 150 μM, read-out: Dyn 1 IC50.
Setting [5] is: values quoted in running text (section 2.2), read-out: Dynamin IC50.
Where [6] appears, read: Table 2, library 2, average of duplicate measurements (n=2).
Where [7] appears, read: Table 1, library 1, average of duplicate measurements (n=2).
Setting [8] is: Table 3, library 3, average of duplicate measurements (n = 2).

Read-outs that look alike come from different tables or passages of the source.

By IC50 is commonly meant the concentration that inhibits the measured activity by half. With `O=C1N=C(NS(=O)(=O)c2cccc3ccccc23)S/C1=C\c1ccc(F)c(F)c1` [compound 38, (Z)‐N‐(5‐(3,4‐difluorobenzylidene)‐4‐oxo‐4,5‐dihydrothiazol‐2‐yl)naphthalene‐1‐sulfonamide], in test [1] (setting [3]), the IC50 is above 100 µM. Still for that read-out and setting: as for `COc1cc(/C=C2\SC(NS(=O)(=O)c3cccc4ccccc34)=NC2=O)cc(OC)c1` [compound 32, (Z)‐N‐(5‐(3,5‐dimethoxybenzylidene)‐4‐oxo‐4,5‐dihydrothiazol‐2‐yl)naphthalene‐1‐sulfonamide], the figure is above 100 µM. With `CCCCc1ccc(/C=C2\SC(NS(=O)(=O)c3cccc4ccccc34)=NC2=O)cc1` [compound 23, (Z)‐N‐(5‐(4‐butylbenzylidene)‐4‐oxo‐4,5‐dihydrothiazol‐2‐yl)naphthalene‐1‐sulfonamide], the figures for the IC50 in test [1] (setting [4]) and in test [1] (setting [5]) were around 103 µM and 103 µM, respectively.

For the compound `CCCc1ccc(/C=C2\SC(NS(=O)(=O)c3cccc4ccccc34)=NC2=O)cc1` [compound 22, (Z)‐N‐(4‐oxo‐5‐(4‐propylbenzylidene)‐4,5‐dihydrothiazol‐2‐yl)naphthalene‐1‐sulfonamide], the IC50 in test [1] (setting [4]) is around 91 µM; in test [1] (setting [5]) it was 91 µM.

Regarding `COc1cc(/C=C2\SC(NS(=O)(=O)c3cccc4ccccc34)=NC2=O)cc(OC)c1OC` [compound 33, (Z)‐N‐(4‐oxo‐5‐(3,4,5‐trimethoxybenzylidene)‐4,5‐dihydrothiazol‐2‐yl)naphthalene‐1‐sulfonamide], the IC50 in test [1] (setting [3]) was above 100 µM; in test [2] (setting [6]), 14.1 µM. Take `CC(C)c1ccc(/C=C2\SC(NS(=O)(=O)c3cccc4ccccc34)=NC2=O)cc1` [compound 21, (Z)‐N‐(5‐(4‐isopropylbenzylidene)‐4‐oxo‐4,5‐dihydrothiazol‐2‐yl)naphthalene‐1‐sulfonamide]: the results for the IC50 in test [1] (setting [4]) and in test [2] (setting [7]) were above 150 µM and 4.1 µM, respectively.

For the compound `COc1ccc(/C=C2\SC(NS(=O)(=O)c3cccc4ccccc34)=NC2=O)cc1OC` [compound 31, (Z)‐N‐(5‐(3,4‐dimethoxybenzylidene)‐4‐oxo‐4,5‐dihydrothiazol‐2‐yl)naphthalene‐1‐sulfonamide], the IC50 in test [1] (setting [3]) turned out to be 91 µM; in test [2] (setting [6]), 2.2 µM. Consider `CC(=O)Nc1ccc(/C=C2\SC(NS(=O)(=O)c3cccc4ccccc34)=NC2=O)cc1` [compound 19, (Z)‐N‐(4‐((2‐(naphthalene‐1‐sulfonamido)‐4‐oxothiazol‐5(4H)‐ylidene)methyl)phenyl)acetamide], for which the IC50 in test [1] (setting [4]) was 93 ± 2.5 µM; in test [1] (setting [5]) it was 92.7 µM; in test [2] (setting [7]), 3.5 µM. Regarding `O=C1N=C(NS(=O)(=O)c2cccc3ccccc23)S/C1=C\c1ccc(O)cc1O` [compound 25, (Z)‐N‐(5‐(2,4‐dihydroxybenzylidene)‐4‐oxo‐4,5‐dihydrothiazol‐2‐yl)naphthalene‐1‐sulfonamide], the IC50 in test [1] (setting [3]) worked out at 61.2 ± 7.5 µM.

As to `O=C1N=C(NS(=O)(=O)c2cccc3ccccc23)SC1=Cc1cccc(-c2ccccc2)c1` [compound 17, N‐(5‐([1,1'‐biphenyl]‐3‐ylmethylene)‐4‐oxo‐4,5‐dihydrothiazol‐2‐yl)naphthalene‐1‐sulfonamide], the IC50 in test [1] (setting [4]) was above 150 µM; in test [2] (setting [7]), 4.02 µM. Regarding `O=C1N=C(NS(=O)(=O)c2cccc3ccccc23)S/C1=C\c1ccc(O)c(O)c1O` [compound 28, (Z)‐N‐(4‐oxo‐5‐(2,3,4‐trihydroxybenzylidene)‐4,5‐dihydrothiazol‐2‐yl)naphthalene‐1‐sulfonamide], in test [1] (setting [3]), the half-maximal inhibitory concentration (IC50) is 34.3 ± 3.4 µM. The same measure, in the same setting: as for `O=C1N=C(NS(=O)(=O)c2cccc3ccccc23)S/C1=C\c1ccc(O)c(O)c1` [compound 27, (Z)‐N‐(5‐(3,4‐dihydroxybenzylidene)‐4‐oxo‐4,5‐dihydrothiazol‐2‐yl)naphthalene‐1‐sulfonamide], the figure is 50.4 ± 8.4 µM. As to `O=C1N=C(NS(=O)(=O)c2cccc3ccccc23)S/C1=C\C1CCCCC1` [compound 40, (Z)‐N‐(5‐(cyclohexylmethylene)‐4‐oxo‐4,5‐dihydrothiazol‐2‐yl)naphthalene‐1‐sulfonamide], the IC50 in test [1] (Table 3, library 3, n = 1 unless otherwise stated (41, 42: n = 2), '–' = not active at 100 μM, read-out: Dynamin 1 IC50) is above 100 µM. With `COc1ccc(/C=C2\SC(NS(=O)(=O)c3cccc4ccccc34)=NC2=O)c(OC)c1` [compound 30, (Z)‐N‐(5‐(2,4‐dimethoxybenzylidene)‐4‐oxo‐4,5‐dihydrothiazol‐2‐yl)naphthalene‐1‐sulfonamide], the IC50 was above 100 µM in test [1] (setting [3]) and 1 µM in test [2] (setting [6]). Regarding `CC(C)(C)c1ccc(/C=C2\SC(NS(=O)(=O)c3cccc4ccccc34)=NC2=O)cc1` [compound 20, (Z)‐N‐(5‐(4‐(tert‐butyl)benzylidene)‐4‐oxo‐4,5‐dihydrothiazol‐2‐yl)naphthalene‐1‐sulfonamide], the IC50 in test [1] (setting [4]) was above 150 µM. Regarding `N#Cc1ccc(/C=C2\SC(NS(=O)(=O)c3cccc4ccccc34)=NC2=O)cc1` [compound 11, (Z)‐N‐(5‐(4‐cyanobenzylidene)‐4‐oxo‐4,5‐dihydrothiazol‐2‐yl)naphthalene‐1‐sulfonamide], the half-maximal inhibitory concentration (IC50) in test [1] (setting [4]) is above 150 µM. Turning to `CCCCCCC/C=C1\SC(NS(=O)(=O)c2cccc3ccccc23)=NC1=O` [compound 43, (Z)‐N‐(5‐octylidene‐4‐oxo‐4,5‐dihydrothiazol‐2‐yl)naphthalene‐1‐sulfonamide], the 50% inhibitory concentration (IC50) in test [2] (setting [8]) worked out at 5.9 µM. For the compound `COc1cccc(/C=C2\SC(NS(=O)(=O)c3cccc4ccccc34)=NC2=O)c1OC` [compound 29, (Z)‐N‐(5‐(2,3‐dimethoxybenzylidene)‐4‐oxo‐4,5‐dihydrothiazol‐2‐yl)naphthalene‐1‐sulfonamide], in test [1] (setting [3]), the IC50 is above 100 µM. Regarding `O=C1N=C(NS(=O)(=O)c2cccc3ccccc23)S/C1=C\c1cc(O)ccc1O` [compound 26, (Z)‐N‐(5‐(2,5‐dihydroxybenzylidene)‐4‐oxo‐4,5‐dihydrothiazol‐2‐yl)naphthalene‐1‐sulfonamide], the IC50 in test [1] (setting [3]) is 70 ± 5.3 µM. `O=C1N=C(NS(=O)(=O)c2cccc3ccccc23)S/C1=C\C1CC=CCC1` (stereo not drawn) [compound 39, (Z)‐N‐(5‐(cyclohex‐3‐en‐1‐ylmethylene)‐4‐oxo‐4,5‐dihydrothiazol‐2‐yl)naphthalene‐1‐sulfonamide]: the IC50 in test [2] (setting [8]) worked out at 4.3 µM. In the case of `O=C1N=C(NS(=O)(=O)c2cccc3ccccc23)SC1=Cc1ccccc1-c1ccccc1` [compound 16, N‐(5‐([1,1'‐biphenyl]‐2‐ylmethylene)‐4‐oxo‐4,5‐dihydrothiazol‐2‐yl)naphthalene‐1‐sulfonamide], the IC50 in test [1] (setting [4]) was above 150 µM.

(Values after PMC12368479, “Inhibition of the Clathrin Terminal Domain—Amphiphysin Protein–Protein Interaction. Probing the Pitstop 2 Aromatic Moiety” (Chemmedchem, 2025).)
